# ChEMBL document CHEMBL1157539, “Thousands of chemical starting points for antimalarial lead identification” (Nature, 2010)
# System: Plasmodium falciparum
# Assay: GSK_TCMDC: Inhibition of Plasmodium falciparum 3D7 in whole erythrocytes, using parasite LDH activity as an index of growth.
# Assay type: functional, organism-based
# Conditions: Plasmodium falciparum, 3D7
row,Compound,XC50
1,CNCCCNc1ccnc2cc(Cl)ccc12,62.4 nM
2,CC(C)Nc1nc(NC2CCCCC2)nc(N2CCCCCCC2)n1,1090 nM
3,COc1ccccc1N1CCN(c2cccc(F)c2C#N)CC1,965 nM
4,N#Cc1ccc2c(c1)CCN(CCC1CCC(NC(=O)Nc3ccnc4ccccc34)CC1)C2 (stereo unspecified),377 nM
5,N=C1NC(=N)N(OCCCCCCON2C(=N)NC(=N)NC2C=Cc2ccccc2)C(C=Cc2ccccc2)N1 (stereo unspecified),615 nM
6,O=C(Nc1cccc(-c2ccc(-c3nc4cc(F)ccc4[nH]3)cc2)c1)c1ccncc1,278 nM
7,CNC(=O)COc1cc(C)c(C2CCN(CCCCNC(=O)c3ccc(-c4ccc(C(F)(F)F)cc4)cc3)CC2)cc1C,868 nM
8,CC(=O)N(C)C1CCN(Cc2cccc(-c3ccc(-c4nc5cc(F)ccc5[nH]4)cc3)c2)C1 (stereo unspecified),957 nM
9,CN(c1ccc2c(c1)nc(NCc1ccc(F)cc1)n2C)c1ccnc(Nc2ccc(CS(C)(=O)=O)cc2)n1,828 nM
10,Cc1cccc(Nc2c(-c3cc(Br)ccc3O)nc3ncccn23)c1,206 nM
11,CCc1ccc(-c2cnc(N)c3cc(-c4ccnc(N)n4)ccc23)cc1,1350 nM
12,COc1cc(C(C)C)ccc1C1CCN(CCCCNC(=O)c2ccc(NC(=O)c3ccc(Cl)cc3)cc2)CC1,449 nM
13,Cc1[nH]c2ccccc2c1C1=CCN(CCCCCNC(=O)/C=C/c2ccc(Cl)c(Cl)c2)CC1,272 nM
14,Cc1cc(Nc2cccc(C(F)(F)F)c2)nc(Nc2cccc(C(F)(F)F)c2)n1,644 nM
15,CCN(CC)CCCNc1ncc2c(-c3ccc(NC(=O)Nc4cc(C(F)(F)F)ccc4F)c(F)c3)nn(C)c2n1,272 nM
16,Cc1ccc(NC(C)C(=O)Nc2ccccc2)cc1S(=O)(=O)N1CCCCCC1 (stereo unspecified),62.4 nM
17,Cc1cccc(-n2c(Nc3ccc(C)c(Cl)c3)nc3ccc(S(=O)(=O)NC(C)C(C)C)cc32)c1 (stereo unspecified),648 nM
18,CCCCc1cc(NCC)nc(Nc2ccc(F)cc2)n1,790 nM
19,Cc1ccc(F)c(C(=O)Nc2cccc(-c3nn4ccccc4c3-c3ccnc(Nc4cccc(F)c4)n3)c2)c1F,1050 nM
20,C(=Cc1ccccc1)C=NN=c1cc[nH]c2ccccc12,725 nM
21,COc1ccc(Cc2c(Cl)nc3nc(N)nc(N)c3c2C)cc1,1090 nM

row,Compound,XC50
1,O=C(NC1CCN(c2ccnc3cc(Cl)ccc23)C1)c1ccccc1F (stereo unspecified),971 nM
2,C[C@H](Cc1ccc(OCCCCCCOc2ccc(C[C@@H](C)NC(=O)[C@H](O)c3cccc(Cl)c3)cc2)cc1)NC[C@H](O)c1cccc(Cl)c1,381 nM
3,Nc1c2c(nc3ccc(Oc4ccc(Cl)cc4)cc13)CCCC2,972 nM
4,CCOc1cc(/C=N/Nc2nc3ccccc3[nH]2)ccc1OCc1ccc([N+](=O)[O-])cc1,995 nM
5,COC(=O)c1cc(C(O)CNC(C)CCCc2ccccc2)ccc1O (stereo unspecified),742 nM
6,CCC(C)(C)C1CCc2nc(N)nc(N)c2C1 (stereo unspecified),6.38 nM
7,COc1ccc2nc3cc(Cl)ccc3c(NCCNCC(O)CO)c2n1 (stereo unspecified),152 nM
8,CN1CCC(N2CCN(Cc3ccc(-c4cccc(-c5nc6cc(F)ccc6[nH]5)c4)cc3)CC2)CC1,173 nM
9,CC1N=C(N)N=C(N)N1OCc1cccc2ccccc12 (stereo unspecified),3.2 nM
10,O=C(NC1CC1)c1ccc(N2CCC(Cc3ccccc3)CC2)nc1,761 nM
11,O=C(Nc1ccc(Cl)cc1Cl)N[C@H]1CCN(CCCCCNC(=O)C2CC2c2ccc(Cl)c(Cl)c2)C1 (stereo partly specified),989 nM
12,O=[N+]([O-])c1ccc(N2CCCN(C(=S)Nc3ccc(F)cc3Br)CC2)nc1,302 nM
13,CCC(C)(C)C1CCc2[nH]c3ccccc3c(=O)c2C1 (stereo unspecified),384 nM
14,Cc1cc(=NN=Cc2ccccc2Cl)c2cc(F)ccc2[nH]1,750 nM
15,CCCCc1cc(NCC)nc(Nc2ccc(OC)cc2)n1,1180 nM
16,Cc1cccc2nc(-c3ccc(-c4ccc(CN5CCCC5CN)cc4)cc3)[nH]c12 (stereo unspecified),815 nM
17,Cc1cc(CNCCCCCNCc2ccc(Cl)cc2)ccc1O,706 nM
18,C=CCOc1ccc(C2C(C(=O)OC)=C(C)NC3=C2C(=O)c2ccccc23)cc1OC (stereo unspecified),877 nM
19,CN(C)c1ccc(NC(=O)Nc2ccnc3ccc(Br)cc23)cc1,872 nM
20,Cc1ccc(NC(=O)c2cn(-c3ccccc3)nc2-c2ccc(F)cc2)cc1[N+](=O)[O-],1000 nM
